Legend:
[1] = Determination of aqueous solubility/dispersibility; format: physicochemical; conditions: deionized water
Procedure: (§1) 30.13 mg of 3 was added to 1 mL of USP-purified water. The sample was rotated for 2 hours, then centrifuged for 5 minutes. After centrifuging, solid was visible in the bottom of the tube. A 125-μL aliquot of the solution was then diluted to 25 mL. The sample was analyzed by UV/Vis spectroscopy at 436 nm, and the absorbance was compared to a standard curve compiled from 4 standards of known concentration. The concentration of the original supernatant was calculated to be 2.85 mg/mL and the absorptivity was 36.94 AU*mL/cm*mg. Slight error may have been introduced by the small size of the original aliquot.
as §1, with “Next, 30.80” for “30.13”, “9” for “3”, “411” for “436”, “29.27” for “2.85”, “2.90” for “36.94”

[2] = test system: New Zealand white rabbits; assay: Myocardial infarct size after 30 min LAD coronary artery occlusion and 3 h reperfusion (tetrazolium method); format: in vivo, rabbit
Procedure: Male New Zealand white rabbits (2.3-2.6 kg) were assigned randomly to two separate groups. Each animal received DDA aqueous formulation (50 mg/kg), or an equal volume of sterile NaCl solution, once per day intravenously. The dose of DDA was selected based on the findings of previous investigations in which it was determined that a dosing regimen over four days produced statistically significant myocardial salvage in Sprague-Dawley rats (41% mean salvage at 50 mg/kg) and mongrel canines (68% mean salvage at 50 mg/kg) after ischemia and reperfusion (Gross and Lockwood, 2004; Gross and Lockwood, In Press). The animals in each group received the respective treatments on each of four consecutive days, with the experimental protocol being initiated on fifth day.
One day after the last treatment (DDA or placebo), rabbits were anesthetized with a combination of xylazine (3.0 mg/kg) and ketamine (35 mg/kg) administered intramuscularly, followed by an intravenous injection of sodium pentobarbital (15 mg/kg). An endotracheal tube was inserted and the animals were placed on a positive pressure ventilator (Harvard Apparatus, Cambridge, Mass.). The right jugular vein was cannulated for blood sampling and the right carotid artery was instrumented with a Millar catheter micro-tip pressure transducer (Millar Instruments Inc., Houston, Tex.). The Millar catheter transducer was positioned immediately above the aortic valves to monitor aortic blood pressure. The lead II electrocardiogram was monitored throughout the protocol. A left thoracotomy and pericardiotomy were performed, followed by identification of the left anterior descending coronary artery. A silk suture (3-0; Genzyme Corporation, Fall River, Mass.) was passed under the artery and around a short length of polyethylene tubing. […] Coronary artery occlusion was maintained for 30 min after which time reperfusion was initiated by withdrawing the polyethylene tubing. […]

rabbit complement system = assay: Complement-mediated red blood cell (RBC) hemolysis assay, ex vivo, rabbit plasma on human erythrocytes; format: in vivo; conditions: plasma after 3 h reperfusion, 50 mg/kg, 4 days; p<0.01
Procedure: A red blood cell (RBC) lysis assay was used to determine whether the pretreatment with DDA compared to placebo-treated animals was able to inhibit the rabbit complement system. The ex vivo analysis of complement activity is based on the C5b-9-dependent lysis of human red blood cells upon exposure to rabbit plasma. Complement-mediated RBC hemolysis was assessed by a turbidometric method described previously (Pascual et al., 1990). The hemolysis assay is an accepted method of assessing the complement titer of plasma or serum samples (Whaley, 1985). Rabbit plasma was obtained from whole blood samples drawn from rabbits that were pretreated with DDA (50 mg/kg, 4 days, n=5) or sterile 0.9% sodium chloride solution (4 days, n=5). After obtaining informed consent, human whole blood for the isolation of red blood cells was obtained by venipuncture of the forearm vein of a healthy donor who had not been exposed to any medication for the past seven days. The cells were washed three times in 10 ml phosphate buffered saline (PBS, pH 7.4) and diluted in PBS to achieve a final RBC concentration of 1×10^8 cells/ml. The assay was initiated by the addition of 15 μl of diluted human RBCs to 185 μl of rabbit plasma, and the light transmittance was monitored for 5 min. The final assay volume was 200 μl. […]

Sprague-Dawley rats = conditions: 50 mg/kg i.v., four days; cited from earlier work
mongrel canines = conditions: 50 mg/kg i.v., four days; cited from earlier work

Structure (SMILES): CC1=C(/C=C/C(C)=C/C=C/C(C)=C/C=C/C=C(C)/C=C/C=C(C)/C=C/C2=C(C)C(=O)C(OC(=O)CCC(=O)O)CC2(C)C)C(C)(C)CC(OC(=O)CCC(=O)O)C1=O (stereo not shown) [DDA, disodium disuccinate astaxanthin]
- maximum aqueous dispersibility [1]: greater than 10 mM
- mean myocardial salvage ([2]; 50 mg/kg daily i.v. for four days, versus placebo): 51%
- mean infarct size expressed as a percentage of the area at risk ([2]; 50 mg/kg/day i.v. for 4 days, 30 min occlusion, 3 h reperfusion, mean ± S.E.M.): 25.8±4.2%
- heart rate, blood pressure, blood gases versus saline group ([2]; baseline and throughout protocol on day 5): No differences
- rabbit plasma-induced human erythrocyte hemolysis versus placebo (rabbit complement system): significantly attenuated
- mean myocardial salvage (Sprague-Dawley rats): 41%
- mean myocardial salvage (mongrel canines): 68%

Source: patent publication US9180111B2, “Reduction in complement activation and inflammation during tissue injury by carotenoids, carotenoid analogs, or derivatives thereof” (Cardax Pharma, Inc., priority 2005, dated 2015)
